Results published in ChEMBL document CHEMBL1909046, “DrugMatrix in vitro pharmacology data”.

Experiments:
[1] = target: Beta-3 adrenergic receptor (Homo sapiens, UniProt P13945); test: DRUGMATRIX: Adrenergic beta3 radioligand binding (ligand: [125I] Cyanopindolol); assay type: cell membranes, HEK293, Membrane; conditions: hek293; Not Active = under 50% inhibition at 10 µM
[2] = DRUGMATRIX: ATPase, Na+/K+ enzyme inhibition (substrate: ATP); assay type: tissue-based, Sus scrofa, Heart; conditions: Not Active = under 50% inhibition at 10 µM
[3] = target: C-C chemokine receptor type 5 (Homo sapiens, UniProt P51681); assay type: cell membranes, Membrane; conditions: hek293; further: in other assays of this panel Not Active means under 50% inhibition at 10 µM
Chain of C-C chemokine receptor type 5 (P51681 whole entry): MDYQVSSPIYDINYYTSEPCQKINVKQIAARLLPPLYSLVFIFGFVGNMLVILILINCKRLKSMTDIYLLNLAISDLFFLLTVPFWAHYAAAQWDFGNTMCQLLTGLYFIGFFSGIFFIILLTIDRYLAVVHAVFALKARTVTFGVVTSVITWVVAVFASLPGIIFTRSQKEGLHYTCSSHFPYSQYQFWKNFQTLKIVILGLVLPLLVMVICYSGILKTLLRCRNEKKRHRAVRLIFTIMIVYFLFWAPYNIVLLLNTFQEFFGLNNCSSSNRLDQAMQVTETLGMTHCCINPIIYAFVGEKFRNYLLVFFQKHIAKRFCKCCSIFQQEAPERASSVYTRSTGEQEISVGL

D(4) dopamine receptor = target: T1, D(4) dopamine receptor (Homo sapiens, UniProt P21917); test: DRUGMATRIX: Dopamine D4.2 radioligand binding (ligand: [3H] Spiperone); assay type: cell membranes, CHO-K1, Membrane; conditions: cho-k1; Not Active = under 50% inhibition at 10 µM
T1 sequence (P21917 whole entry): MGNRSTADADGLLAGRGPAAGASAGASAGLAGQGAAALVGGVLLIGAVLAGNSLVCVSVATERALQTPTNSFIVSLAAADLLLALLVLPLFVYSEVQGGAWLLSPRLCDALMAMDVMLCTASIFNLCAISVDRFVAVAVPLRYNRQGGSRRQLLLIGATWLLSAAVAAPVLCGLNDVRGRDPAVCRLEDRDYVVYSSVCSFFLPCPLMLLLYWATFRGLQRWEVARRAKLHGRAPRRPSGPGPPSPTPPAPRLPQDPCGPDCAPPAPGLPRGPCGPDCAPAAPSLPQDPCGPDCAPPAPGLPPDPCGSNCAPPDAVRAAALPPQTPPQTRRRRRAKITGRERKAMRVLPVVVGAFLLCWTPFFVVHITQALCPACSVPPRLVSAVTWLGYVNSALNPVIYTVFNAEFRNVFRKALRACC

[4] = DRUGMATRIX: Glutamate, AMPA radioligand binding (ligand: [3H] AMPA); assay type: cell membranes, Rattus norvegicus, Wistar, Cerebral cortex, Membrane; conditions: Not Active = under 50% inhibition at 10 µM
[5] = DRUGMATRIX: Imidazoline I2, Central radioligand binding (ligand: [3H] Idazoxan); assay type: cell membranes, Rattus norvegicus, Wistar, Cerebral cortex, Membrane; conditions: Not Active = under 50% inhibition at 10 µM
Insulin receptor = Insulin receptor (Rattus norvegicus, UniProt P15127); assay type: cell membranes, Wistar, Liver, Membrane; further: in other assays of this panel Not Active means under 50% inhibition at 10 µM
Chain of Insulin receptor (P15127 27-759 limits assumed): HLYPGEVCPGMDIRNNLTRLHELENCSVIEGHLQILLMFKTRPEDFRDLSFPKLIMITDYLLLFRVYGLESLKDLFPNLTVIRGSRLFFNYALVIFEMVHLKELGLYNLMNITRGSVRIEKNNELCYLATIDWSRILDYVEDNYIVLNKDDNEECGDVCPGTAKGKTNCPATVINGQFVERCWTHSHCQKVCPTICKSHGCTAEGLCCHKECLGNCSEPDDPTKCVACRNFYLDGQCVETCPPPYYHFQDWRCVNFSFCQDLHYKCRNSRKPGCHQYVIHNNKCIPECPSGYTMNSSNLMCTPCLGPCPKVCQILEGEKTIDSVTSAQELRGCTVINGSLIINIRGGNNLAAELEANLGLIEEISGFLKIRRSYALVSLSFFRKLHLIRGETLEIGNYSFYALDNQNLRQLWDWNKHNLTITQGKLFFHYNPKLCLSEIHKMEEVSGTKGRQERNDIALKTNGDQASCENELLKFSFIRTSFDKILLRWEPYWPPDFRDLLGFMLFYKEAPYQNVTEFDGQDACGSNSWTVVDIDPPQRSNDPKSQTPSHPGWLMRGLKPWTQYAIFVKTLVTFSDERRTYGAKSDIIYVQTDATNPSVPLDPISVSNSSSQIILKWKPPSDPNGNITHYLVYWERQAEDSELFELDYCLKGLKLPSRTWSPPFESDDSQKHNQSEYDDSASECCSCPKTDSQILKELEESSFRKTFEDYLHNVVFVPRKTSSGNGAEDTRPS
Chain of Insulin receptor (P15127 764-1383 limits assumed): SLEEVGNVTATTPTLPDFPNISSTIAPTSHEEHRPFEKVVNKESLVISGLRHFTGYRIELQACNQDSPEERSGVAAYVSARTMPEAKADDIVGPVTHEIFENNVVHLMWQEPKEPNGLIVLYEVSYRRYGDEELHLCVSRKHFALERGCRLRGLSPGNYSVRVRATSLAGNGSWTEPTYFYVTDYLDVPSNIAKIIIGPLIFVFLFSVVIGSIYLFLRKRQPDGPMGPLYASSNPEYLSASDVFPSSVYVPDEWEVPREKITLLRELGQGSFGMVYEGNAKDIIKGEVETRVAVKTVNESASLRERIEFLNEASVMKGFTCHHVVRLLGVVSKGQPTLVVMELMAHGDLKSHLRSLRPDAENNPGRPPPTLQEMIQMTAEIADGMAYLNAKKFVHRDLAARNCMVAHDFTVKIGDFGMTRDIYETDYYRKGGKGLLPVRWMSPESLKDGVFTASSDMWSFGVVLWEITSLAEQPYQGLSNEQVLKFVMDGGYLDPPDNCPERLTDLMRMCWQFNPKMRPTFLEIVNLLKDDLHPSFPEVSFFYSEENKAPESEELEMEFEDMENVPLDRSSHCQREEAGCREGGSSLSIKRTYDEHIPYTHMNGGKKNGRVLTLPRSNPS

[6] = target: T2, Angiotensin-converting enzyme (Oryctolagus cuniculus, UniProt P12822); test: biochemical; assay type: tissue-based, Lung;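 further: enzymatic inhibition of angiotensin-converting enzyme measured with FAPGG as the substrate; in other assays of this panel Not Active means under 50% inhibition at 10 µM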
T2 sequence (P12822 whole entry): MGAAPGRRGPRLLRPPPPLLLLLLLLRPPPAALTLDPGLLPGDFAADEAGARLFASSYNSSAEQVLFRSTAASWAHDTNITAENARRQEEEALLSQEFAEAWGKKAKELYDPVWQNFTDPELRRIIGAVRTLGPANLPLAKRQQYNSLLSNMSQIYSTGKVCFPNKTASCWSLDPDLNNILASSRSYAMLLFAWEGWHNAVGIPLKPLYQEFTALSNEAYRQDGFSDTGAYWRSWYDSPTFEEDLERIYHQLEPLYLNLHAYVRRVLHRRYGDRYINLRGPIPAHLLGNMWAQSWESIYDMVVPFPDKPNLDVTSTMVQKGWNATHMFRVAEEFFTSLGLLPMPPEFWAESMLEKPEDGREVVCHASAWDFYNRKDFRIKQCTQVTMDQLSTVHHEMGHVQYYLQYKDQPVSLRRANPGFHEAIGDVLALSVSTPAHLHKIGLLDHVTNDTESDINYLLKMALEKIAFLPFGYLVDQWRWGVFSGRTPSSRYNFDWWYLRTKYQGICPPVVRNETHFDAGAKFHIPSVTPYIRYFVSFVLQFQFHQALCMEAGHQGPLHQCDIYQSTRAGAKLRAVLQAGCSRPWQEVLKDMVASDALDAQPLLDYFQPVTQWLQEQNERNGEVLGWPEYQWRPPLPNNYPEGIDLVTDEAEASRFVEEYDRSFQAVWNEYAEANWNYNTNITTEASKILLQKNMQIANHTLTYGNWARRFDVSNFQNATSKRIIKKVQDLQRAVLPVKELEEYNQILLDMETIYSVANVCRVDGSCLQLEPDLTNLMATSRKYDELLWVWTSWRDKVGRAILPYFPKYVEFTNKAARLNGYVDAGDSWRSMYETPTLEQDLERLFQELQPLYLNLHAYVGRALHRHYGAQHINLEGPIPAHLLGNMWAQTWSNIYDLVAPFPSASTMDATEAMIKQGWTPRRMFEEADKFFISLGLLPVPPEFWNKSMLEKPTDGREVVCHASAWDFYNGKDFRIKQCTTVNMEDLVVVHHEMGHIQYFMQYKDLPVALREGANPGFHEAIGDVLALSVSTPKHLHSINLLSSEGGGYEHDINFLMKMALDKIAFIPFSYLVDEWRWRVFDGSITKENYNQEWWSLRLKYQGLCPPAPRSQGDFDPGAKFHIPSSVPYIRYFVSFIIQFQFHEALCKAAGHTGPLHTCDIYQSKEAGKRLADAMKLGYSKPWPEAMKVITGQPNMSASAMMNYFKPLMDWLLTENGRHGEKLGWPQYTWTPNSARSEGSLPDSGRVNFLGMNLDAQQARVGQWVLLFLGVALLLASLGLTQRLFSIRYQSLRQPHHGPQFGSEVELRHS

[7] = target: Epidermal growth factor receptor (Homo sapiens, UniProt P00533); test: DRUGMATRIX: Protein Tyrosine Kinase, EGF Receptor enzyme inhibition (substrate: Poly(Glu:Tyr)); assay type: cell-based, Insect cells; conditions: insect cells; Not Active = under 50% inhibition at 10 µM
Chain of Epidermal growth factor receptor (P00533 whole entry): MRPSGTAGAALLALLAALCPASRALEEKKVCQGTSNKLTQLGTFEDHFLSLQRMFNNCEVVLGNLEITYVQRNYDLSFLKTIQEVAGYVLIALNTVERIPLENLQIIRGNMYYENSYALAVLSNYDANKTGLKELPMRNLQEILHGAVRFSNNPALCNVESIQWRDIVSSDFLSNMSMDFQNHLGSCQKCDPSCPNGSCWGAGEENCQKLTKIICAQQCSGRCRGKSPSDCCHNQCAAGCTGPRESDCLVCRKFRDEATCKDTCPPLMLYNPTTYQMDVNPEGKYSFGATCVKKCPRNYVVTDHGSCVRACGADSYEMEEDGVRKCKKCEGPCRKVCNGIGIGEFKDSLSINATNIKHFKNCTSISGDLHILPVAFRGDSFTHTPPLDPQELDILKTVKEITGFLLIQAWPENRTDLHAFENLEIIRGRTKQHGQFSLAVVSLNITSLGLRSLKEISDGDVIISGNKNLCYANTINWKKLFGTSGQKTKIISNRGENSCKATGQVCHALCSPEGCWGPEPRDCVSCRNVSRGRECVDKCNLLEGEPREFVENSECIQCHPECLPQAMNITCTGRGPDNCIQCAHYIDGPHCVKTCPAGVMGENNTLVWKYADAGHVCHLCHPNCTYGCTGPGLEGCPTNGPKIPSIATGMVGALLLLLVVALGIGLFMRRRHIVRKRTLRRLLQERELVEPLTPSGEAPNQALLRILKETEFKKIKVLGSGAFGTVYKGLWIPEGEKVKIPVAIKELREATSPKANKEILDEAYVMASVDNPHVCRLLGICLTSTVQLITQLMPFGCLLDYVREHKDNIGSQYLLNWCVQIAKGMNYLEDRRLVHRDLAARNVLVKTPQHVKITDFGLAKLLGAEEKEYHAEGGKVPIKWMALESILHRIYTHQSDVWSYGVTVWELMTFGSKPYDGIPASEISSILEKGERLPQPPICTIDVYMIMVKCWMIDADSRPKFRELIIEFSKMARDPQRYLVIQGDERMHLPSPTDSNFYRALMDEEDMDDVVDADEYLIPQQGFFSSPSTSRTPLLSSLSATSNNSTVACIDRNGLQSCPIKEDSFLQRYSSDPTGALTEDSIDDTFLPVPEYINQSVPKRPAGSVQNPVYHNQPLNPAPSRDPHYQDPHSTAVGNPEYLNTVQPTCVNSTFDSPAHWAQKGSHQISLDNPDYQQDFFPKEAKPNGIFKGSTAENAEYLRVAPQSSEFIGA

Cytochrome P450 2A6 = target: T3, Cytochrome P450 2A6 (Homo sapiens, UniProt P11509); conditions: bti-tn-5b1-4; further: in other assays of this panel Not Active means under 50% inhibition at 10 µM
T3 sequence (P11509 whole entry): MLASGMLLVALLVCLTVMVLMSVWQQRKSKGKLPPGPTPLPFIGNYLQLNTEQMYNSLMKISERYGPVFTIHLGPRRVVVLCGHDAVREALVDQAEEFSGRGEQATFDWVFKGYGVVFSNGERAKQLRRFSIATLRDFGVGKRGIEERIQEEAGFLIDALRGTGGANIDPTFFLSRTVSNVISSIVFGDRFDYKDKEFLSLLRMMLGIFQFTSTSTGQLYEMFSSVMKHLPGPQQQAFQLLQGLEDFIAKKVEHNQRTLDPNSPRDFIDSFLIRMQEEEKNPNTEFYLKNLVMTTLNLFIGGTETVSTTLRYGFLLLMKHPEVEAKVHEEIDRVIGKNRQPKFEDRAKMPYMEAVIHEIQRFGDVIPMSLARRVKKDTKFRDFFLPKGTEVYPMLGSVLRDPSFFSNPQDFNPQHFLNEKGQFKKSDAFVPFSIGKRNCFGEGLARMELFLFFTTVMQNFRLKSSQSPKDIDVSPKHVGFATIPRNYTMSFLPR

Chain of Beta-3 adrenergic receptor (P13945 whole entry): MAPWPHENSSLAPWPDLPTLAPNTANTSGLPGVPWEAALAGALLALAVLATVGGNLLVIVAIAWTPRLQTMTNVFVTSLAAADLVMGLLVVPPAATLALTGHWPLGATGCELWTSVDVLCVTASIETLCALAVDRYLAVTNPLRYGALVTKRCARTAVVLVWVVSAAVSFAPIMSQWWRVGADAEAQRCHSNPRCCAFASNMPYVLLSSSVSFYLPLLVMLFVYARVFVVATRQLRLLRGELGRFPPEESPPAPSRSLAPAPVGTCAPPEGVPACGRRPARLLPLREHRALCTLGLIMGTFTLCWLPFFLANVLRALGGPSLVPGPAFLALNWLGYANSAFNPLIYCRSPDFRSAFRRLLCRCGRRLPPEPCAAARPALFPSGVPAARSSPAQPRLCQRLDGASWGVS

CC(=O)[C@H]1CC[C@H]2[C@@H]3CCC4=CC(=O)CC[C@]4(C)[C@H]3CC[C@]12C [PROGESTERONE]
Not Active: IC50 [1] | IC50 [2] | Ki [2] | IC50 [3] | IC50 (D(4) dopamine receptor) | IC50 [4] | Ki [4] | IC50 [5] | Ki [5] | IC50 (Insulin receptor) | IC50 [6] | IC50 [7] | IC50 (Cytochrome P450 2A6) | Ki (Cytochrome P450 2A6)

NC(=O)c1ncn([C@@H]2O[C@H](CO)[C@@H](O)[C@H]2O)n1 [RIBAVIRIN]
Not Active: IC50 [1] | IC50 [2] | Ki [2] | IC50 [3] | IC50 (D(4) dopamine receptor) | IC50 [4] | Ki [4] | IC50 [5] | Ki [5] | IC50 (Insulin receptor) | IC50 [6] | IC50 [7] | IC50 (Cytochrome P450 2A6) | Ki (Cytochrome P450 2A6)

O=[N+]([O-])c1cc([As](=O)(O)O)ccc1O [ROXARSONE]
Not Active: IC50 [1] | Ki [1] | IC50 [2] | Ki [2] | IC50 [3] | Ki [3] | IC50 (D(4) dopamine receptor) | Ki (D(4) dopamine receptor) | IC50 [4] | Ki [4] | IC50 [5] | Ki [5] | IC50 (Insulin receptor) | Ki (Insulin receptor) | IC50 [6] | Ki [6] | IC50 [7] | Ki [7] | IC50 (Cytochrome P450 2A6) | Ki (Cytochrome P450 2A6)

CC[C@H]1OC(=O)[C@H](C)[C@@H](O[C@H]2C[C@@](C)(OC)[C@@H](O)[C@H](C)O2)[C@H](C)[C@@H](O[C@@H]2O[C@H](C)C[C@H](N(C)C)[C@H]2O)[C@](C)(O)C[C@@H](C)/C(=N\OCOCCOC)[C@H](C)[C@@H](O)[C@]1(C)O [ROXITHROMYCIN]
Not Active: IC50 [1] | IC50 [2] | Ki [2] | IC50 [3] | IC50 (D(4) dopamine receptor) | IC50 [4] | Ki [4] | IC50 [5] | Ki [5] | IC50 (Insulin receptor) | IC50 [6] | IC50 [7] | IC50 (Cytochrome P450 2A6) | Ki (Cytochrome P450 2A6)

NC(=O)c1ccccc1O [SALICYLAMIDE]
Not Active: IC50 [1] | IC50 [2] | Ki [2] | IC50 [3] | IC50 (D(4) dopamine receptor) | IC50 [4] | Ki [4] | IC50 [5] | Ki [5] | IC50 (Insulin receptor) | IC50 [6] | IC50 [7] | IC50 (Cytochrome P450 2A6) | Ki (Cytochrome P450 2A6)

Cc1ncc([N+](=O)[O-])n1CC(C)O (stereo unspecified) [SECNIDAZOLE]
Not Active: IC50 [1] | IC50 [2] | Ki [2] | IC50 [3] | IC50 (D(4) dopamine receptor) | IC50 [4] | Ki [4] | IC50 [5] | Ki [5] | IC50 (Insulin receptor) | IC50 [6] | IC50 [7] | IC50 (Cytochrome P450 2A6) | Ki (Cytochrome P450 2A6)

CC(=O)S[C@@H]1CC2=CC(=O)CC[C@]2(C)[C@H]2CC[C@@]3(C)[C@@H](CC[C@@]34CCC(=O)O4)[C@H]12 [SPIRONOLACTONE]
Not Active: IC50 [1] | IC50 [2] | Ki [2] | IC50 [3] | IC50 (D(4) dopamine receptor) | IC50 [4] | Ki [4] | IC50 [5] | Ki [5] | IC50 (Insulin receptor) | IC50 [6] | IC50 [7] | IC50 (Cytochrome P450 2A6) | Ki (Cytochrome P450 2A6)

C[C@]12Cc3c[nH]nc3C[C@@H]1CC[C@@H]1[C@@H]2CC[C@@]2(C)[C@H]1CC[C@]2(C)O [STANOZOLOL]
Not Active: IC50 [1] | IC50 [2] | Ki [2] | IC50 [3] | IC50 (D(4) dopamine receptor) | IC50 [4] | Ki [4] | IC50 [5] | Ki [5] | IC50 (Insulin receptor) | IC50 [6] | IC50 [7] | IC50 (Cytochrome P450 2A6) | Ki (Cytochrome P450 2A6)

CN(N=O)C(=O)N[C@@H](C=O)[C@@H](O)[C@H](O)[C@H](O)CO [STREPTOZOCIN]
Not Active: IC50 [1] | IC50 [2] | Ki [2] | IC50 [3] | IC50 (D(4) dopamine receptor) | IC50 [4] | Ki [4] | IC50 [5] | Ki [5] | IC50 (Insulin receptor) | IC50 [6] | IC50 [7] | IC50 (Cytochrome P450 2A6) | Ki (Cytochrome P450 2A6)

Cc1cc(NS(=O)(=O)c2ccc(N)cc2)no1 [SULFAMETHOXAZOLE]
Not Active: IC50 [1] | IC50 [2] | Ki [2] | IC50 [3] | IC50 (D(4) dopamine receptor) | IC50 [4] | Ki [4] | IC50 [5] | Ki [5] | IC50 (Insulin receptor) | IC50 [6] | IC50 [7] | IC50 (Cytochrome P450 2A6) | Ki (Cytochrome P450 2A6)
